Data published in PubChem BioAssay (NCI).
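Following 48 hours of exposure in 96-well plates, responses at five concentrations were used to interpolate endpoints linearly. GI50: concentration for 50% inhibition of growth. TGI is the concentration that stops growth completely.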

What was measured:
Experiment in all cases: NCI tumour cell line growth inhibition, 48 h
UACC-62 melanoma = system: UACC-62 melanoma
HL-60(TB) leukemia = system: HL-60(TB) leukemia
SF-295 CNS = system: SF-295 CNS
SNB-19 CNS = system: SNB-19 CNS
786-0 renal = system: 786-0 renal
SF-539 CNS = system: SF-539 CNS
RPMI-8226 leukemia = system: RPMI-8226 leukemia
OVCAR-5 ovarian = system: OVCAR-5 ovarian
PC-3 prostate = system: PC-3 prostate
MDA-MB-435 = system: MDA-MB-435

| SMILES | TGI (UACC-62 melanoma) | TGI (HL-60(TB) leukemia) | TGI (SF-295 CNS) | TGI (SNB-19 CNS) | TGI (786-0 renal) | TGI (SF-539 CNS) | TGI (RPMI-8226 leukemia) | TGI (OVCAR-5 ovarian) | GI50 (UACC-62 melanoma) | GI50 (SF-295 CNS) | GI50 (PC-3 prostate) | TGI (PC-3 prostate) | GI50 (SNB-19 CNS) | GI50 (786-0 renal) | GI50 (SF-539 CNS) | GI50 (RPMI-8226 leukemia) | GI50 (OVCAR-5 ovarian) | GI50 (MDA-MB-435) | TGI (MDA-MB-435) | GI50 (HL-60(TB) leukemia) |
| --- | --- | --- | --- | --- | --- | --- | --- | --- | --- | --- | --- | --- | --- | --- | --- | --- | --- | --- | --- | --- |
| O=C(CO)CC(=O)C(=O)Nc1cccc(C(F)(F)F)c1 | > 100 µM | > 100 µM | > 100 µM | > 100 µM | > 100 µM | > 100 µM | > 100 µM | > 100 µM | – | – | – | – | – | – | – | – | – | – | – | – |
| CC1(C)C2=CCCC(=O)[C@@]2(C)CC[C@@H]1O | > 100 µM | > 100 µM | > 100 µM | > 100 µM | > 100 µM | > 100 µM | > 100 µM | > 100 µM | – | – | – | – | – | – | – | – | – | – | – | – |
| CCCCCCCCCCCCCP(=O)(OC)OC | 32.2 µM | 32.9 µM | 37.1 µM | 38.6 µM | 33.7 µM | 30.9 µM | 50.7 µM | 30.6 µM | – | – | – | – | – | – | – | – | – | – | – | – |
| c1ccc(N2CCN(CCCN3CCc4c([nH]c5ccccc45)C3c3cccnc3)CC2)cc1 (stereo unspecified) | > 100 µM | > 58.3 µM | > 100 µM | > 100 µM | > 100 µM | > 100 µM | > 100 µM | > 100 µM | – | – | – | – | – | – | – | – | – | – | – | – |
| COc1ccc2[nH]cc(C3(c4c[nH]c5ccc(OC)cc45)C(=O)Nc4ccc(Cl)cc43)c2c1 | > 100 µM | – | 6.26 µM | > 100 µM | 83.9 µM | > 100 µM | > 100 µM | 43.1 µM | 3.61 µM | 2.1 µM | 3.96 µM | 38.4 µM | 5.14 µM | 4.43 µM | 4.39 µM | 6.51 µM | 4.08 µM | – | – | – |
| O=C(CS(=O)c1nc2ccccc2nc1-c1ccccc1)Nc1ccc(Cl)cc1 (stereo unspecified) | 40.7 µM | – | 48.7 µM | > 100 µM | 71.7 µM | > 100 µM | 58.8 µM | > 100 µM | 16 µM | 15.7 µM | 26.1 µM | > 100 µM | 38.4 µM | 26.5 µM | 14 µM | 20.6 µM | 33.7 µM | 18.1 µM | 41.4 µM | – |
| COc1cc2c(cc1OC)-c1c(c3ccc([N+](=O)[O-])cc3c(=O)n1CCCN=[N+]=[N-])C2=O | > 100 µM | > 100 µM | > 100 µM | > 100 µM | > 100 µM | > 100 µM | – | > 100 µM | 51.9 µM | 30.1 µM | – | – | > 100 µM | 50.4 µM | 36.4 µM | – | > 100 µM | > 100 µM | > 100 µM | 73 µM |
| CN(CCc1ccccn1)/[N+]([O-])=N/O (tested in a mixture with another compound) | > 100 µM | > 100 µM | > 100 µM | > 100 µM | > 100 µM | > 100 µM | > 100 µM | > 100 µM | – | – | – | – | – | – | – | – | – | – | – | – |
| CCCc1nn(C)c(CCC(=O)N(Cc2ccccc2)Cc2ccccc2)c1CC | > 100 µM | > 100 µM | > 100 µM | > 100 µM | > 100 µM | > 100 µM | > 100 µM | > 100 µM | – | – | – | – | – | – | – | – | – | – | – | – |
| CCN(CC)CCCNc1nccc2c(C)c3[nH]c4ccncc4c(=O)c3cc12 | 3.72 µM | 8.58 µM | 28.4 µM | 28.4 µM | 11.9 µM | 11.2 µM | 13.7 µM | 19.7 µM | – | – | – | – | – | – | – | – | – | – | – | – |
